{"source": "paper PMC6686047", "about": "“Efficient Inhibition of Human Papillomavirus Infection by L2 Minor Capsid-Derived Lipopeptide” (mBio, 2019)", "tested_on": "intracellular HPV L1 and L2", "experiment": "Immunoblot detection of intracellular L1 and L2", "format": "cell-based, HPV16", "settings": "CHO-K1 cells, HPV-GFP MOI of 50; 500 nM 13-46st, 100 nM BafA1 or both for 24 h", "experimental": "FIG 5 The L2N lipopeptide blocks HPV entry without affecting HPV capsid priming and internalization. (A) Cell binding and uptake of L2N lipopeptide. HeLa cells were incubated with 500 nM FITC-m13-46st peptide for indicated times. Images were captured after three PBS washes. Bar, 25 μm. (B) L2N lipopeptide inhibits HPV-GFP entry. HeLa cells were treated with 500 nM L2N lipopeptide (13-46st) before (pre), during (co), or after (post) HPV-GFP inoculation. Mock, no peptide treatment. GFP intensity was analyzed at 36 hpi. Bar, 200 μm. (C) Peptide addition/withdrawal assays were performed as indicated in the schematic diagram (top). CHO-K1 cells were incubated with HPV-Lucia at 4°C for 2 h. […] Lucia activity was analyzed at 40 hpi. […] Intracellular L1 and L2 levels were determined by immunoblotting with MD2H11 and JWW-1, respectively. […] HPV L2 JWW-1 epitope exposure was analyzed by immunostaining with JWW-1 antibody (in red). […]\nFIG 6 The L2N lipopeptide blocks TGN trafficking of HPV, leading to rapid virion degradation. […] Localization of the TGN (green) was analyzed by immunostaining with anti-P230 antibody. […] The ratios of EdU puncta in the nucleus (B) or in the TGN (C) were quantified based on representative images under each condition. P values were determined by ordinary one-way ANOVA with Dunnett’s multiple-comparison test (n = 10) ****, P < 0.0001. […]", "data": [{"smiles": "CO/C1=C\\C(C)=C\\[C@@H](C)[C@@H](O)[C@@H](C)C/C(C)=C/C=C/[C@H](OC)[C@@H]([C@@H](C)[C@@H](O)[C@H](C)[C@@]2(O)C[C@@H](O)[C@H](C)[C@@H](C(C)C)O2)OC1=O", "note": "[BafA1, bafilomycin A1]", "values": [{"measurement": "intracellular full-length L1 and L2 levels", "value": "prevented L1 and L2 degradation"}]}]}
